Laboratory results reported in patent US12642788B2, “Pharmaceutical composition comprising benzimidazole derivative compound” (HK INNO.N CORPORATION, priority 2020, dated 2026).

Assays:
Format in all cases: in vivo, C57BL/6 male mice
[1] = test system: colitis induced by dextran sodium sulfate (DSS); test: Mouse model of colitis using DSS (body weight, length of large intestine, DAI); conditions: 30 mg/kg/day oral twice a day; for decrease in body weight: vs day 0 = 100%
Protocol: Mouse Model of Colitis Using DSS C57BL/6 male mice, which were eight weeks old (24.0 g), were purchased from Orient Bio, acclimated to the laboratory environment (temperature of 21±2° C. and humidity of 50±10%) for one week with a full access to feed and water, and used in an experiment. The mice were divided into a normal control group (Control, n=6), a group with induced colitis (DSS+Veh, n=8), a group dosed with tegoprazan (DSS+Tegoprazan, n=8), and a group dosed with a control drug (DSS+Rabeprazole, n=8), and the experiment was performed. To induce colitis, DSS (MPbio product, catalog No. 0216011080) was used. The group with induced colitis (DSS+Veh) was dosed with 2.0% DSS in drinking water for consecutive five days, was suspended from 2.0% DSS administration from the 5th day, and was orally dosed with 0.5% (w/v) methylcellulose aqueous solution twice a day for three days until the 8th day. The group dosed with tegoprazan (DSS+Tegoprazan) was orally dosed with tegoprazan (7-{[(4S)-5,7-difluoro-3,4-dihydro-2H-chromen-4-yl]oxy}-N,N,2-trimethyl-1H-benzi midazole-5-carboxamide), which was dissolved in 0.5% (w/v) methylcellulose aqueous solution, at a dose of 30 mg/kg/day twice a day for five days along with 2% DSS and drinking water. The group was suspended from 2.0% DSS administration from the 5th day, and was orally dosed with tegoprazan, which was dissolved in 0.5% (w/v) methylcellulose aqueous solution, twice a day for three days until the 8th day. The group dosed with the control drug (DSS+Rabeprazole) was dosed with DSS and rabeprazole in substantially the same manner as the group dosed with tegoprazan, except for using rabeprazole instead of tegoprazan. In the group dosed with tegoprazan and the group dosed with the control drug, the oral administration was performed twice a day by dividing the administration into morning/afternoon. The body weight of each mouse was measured with regard to the normal control group, the group with induced colitis, the group dosed with tegoprazan, and the group dosed with the control drug. The body weight of the mouse was measured every morning from the start day of experiment (day 0), in which DSS was not administered, until the 9th day, and the body weight of the mouse, which was measured on the start day of experiment (day 0) without the administration of DSS, was converted into 100%. On the 9th day after an initial administration of 2% DSS solution, the mouse was sacrificed and the colon was removed therefrom to measure the length of the removed large intestine. (In FIG. 2, * indicates P<0.05 and ** indicates P<0.01.) As DAI, a change in body weight, bloody stool and stool viscosity were measured every morning, and scored according to the following table 1.

[2] = test system: colonic tissues; test: PAS staining analysis and damage to colonic tissues, DSS model; conditions: for scored degree of damage to colonic tissues: score per Table 3
Protocol: (§1) PAS staining analysis was performed on colonic tissues obtained from each of the animal models in which DSS and DNBS had been used, the goblet cell loss was scored according to the following table 2, and the degree of tissue damage was scored according to the following table 3. [table] [table]

[3] = test system: colonic tissues; test: PAS staining analysis and damage to colonic tissues, DNBS model
Protocol: as §1

[4] = test system: colitis induced by 2,4-dinitrobenzenesulfonic acid hydrate (DNBS); test: Mouse model of colitis using DNBS (body weight, length of large intestine, DAI, survival rate); conditions: for body weight: day 0 = 100%; for survival rate: as of day 5
Protocol: Mouse Model of Colitis Using DNBS
C57BL/6 male mice, which were eight weeks old (24.0 g), were purchased from Orient Bio, acclimated to the laboratory environment (temperature of 21±2° C. and humidity of 50±10%) for one week with a full access to feed and water, and used in an experiment.
The mice were divided into a normal control group (Control, n=6), a group with induced colitis (DNBS+Vehicle, n=8), a group dosed with tegoprazan (DNBS+Tegoprazan, n=8), and a group dosed with a control drug (DNBS+Rabeprazole, n=8), and the experiment was performed.
To induce colitis, DNBS (Sigma-Aldrich product, catalog No. 556971) was used. The mice were fasted from one day before being dosed with DNBS to remove the fecal waste in the intestine. The normal control group was dosed with 50% ethanol only by rectal route.
The administration of DNBS was done by dissolving 5 mg of DNBS in 50% ethanol and administering it by rectal route.
In the group dosed with tegoprazan (DNBS+Tegoprazan), the DNBS-administered mouse was orally dosed with tegoprazan (7-{[(4S)-5,7-Difluoro-3,4-dihydro-2H-chromen-4-yl]oxy}-N,N,2-trimethyl-1H-benzi midazole-5-carboxamide), which had been dissolved in 0.5% (w/v) methylcellulose aqueous solution, at a dose of 30 mg/kg/day twice a day for five days.
In the group dosed with the control drug (DNBS+Rabeprazole), the DNBS-administered mouse was dosed with rabeprazole in substantially the same manner as the group dosed with tegoprazan, except for using rabeprazole instead of tegoprazan.
In the group with induced colitis (DNBS+Vehicle), the DNBS-administered mouse was orally dosed with 0.5% (w/v) methylcellulose aqueous solution twice a day.
In the group dosed with tegoprazan, the group dosed with the control drug, and the group with induced colitis, the oral administration was performed twice a day by dividing the administration into morning/afternoon. After being dosed for four days, the mouse was sacrificed on the 5th day.
The body weight of each mouse in the normal control group, the group with induced colitis, the group dosed with tegoprazan, and the group dosed with the control drug was measured. The body weight of the mouse was measured every morning from the start day of experiment before administration of DNBS (day 0) to the 5th day, and the body weight of the mouse before administration of DNBS on day 0 was converted into 100%. In the case of the mouse sacrificed before the end of experiment, the weight of the mouse measured the day before sacrifice was included in the data as of the last day of experiment and converted (refer to FIG. 15 for survival period and survival rate).
On the 5th day after an initial administration of DNBS, the mouse was sacrificed, and the colon was removed therefrom to measure the length of the removed large intestine. (In FIG. 10, * indicates P<0.05.)
As DAI, a change in body weight, bloody stool and stool viscosity were measured every morning, and scored according to the following table 1.
(In relation to the animal model of colitis using DNBS, in the case of the mouse sacrificed before the end of experiment, the DAI score of the mouse measured the day before sacrifice was included in the data as of the last day of experiment and converted (refer to FIG. 15 for survival period and survival rate).)

[5] = test system: KCNJ1 mRNA; test: KCNJ1 mRNA expression in colonic tissues, real-time PCR, DSS model; conditions: 30 mg/kg/day oral
Protocol: In the mouse model of colitis using DSS, the difference in expression of KCNJ1 mRNA was measured by using a real-time PCR. (In FIG. 4, ** indicates P<0.01.)

[6] = test system: TNF-α; test: TNF-α mRNA expression in colonic tissues, DNBS model; conditions: compared to the group with induced colitis
[7] = test system: IL-1β; test: IL-1β production/expression in colonic tissues, DSS model
Protocol: (§2) In the mouse model of colitis using DSS, the level of mRNA expression of IL-1p, IL-6, Muc 2 and TNF-α was evaluated by using a real-time PCR. (In FIG. 5, * indicates P<0.05, ** indicates P<0.01, and *** indicates P<0.001.)

[8] = test system: IL-6; test: IL-6 mRNA expression in colonic tissues, real-time PCR, DSS model; conditions: compared to the group with induced colitis
Protocol: as §2

[9] = test system: Muc2; test: Muc2 mRNA expression in colonic tissues, real-time PCR, DSS model
Protocol: as §2

[10] = test system: TNF-α; test: TNF-α mRNA expression in colonic tissues, real-time PCR, DSS model; conditions: compared to the group with induced colitis
Protocol: as §2

[11] = test system: tight junction (intestinal permeability); test: FITC-dextran permeability, DSS model; conditions: FITC value in serum 4 hours after oral FITC-dextran
Protocol: Four hours before the mouse was sacrificed in the mouse model of colitis using DSS, the mouse was orally dosed with FITC-dextran (80 mg/mL), after which cardiac puncture was performed to measure an FITC value in serum. Permeability (%) was converted based on the normal control group.

[12] = test system: IL-17; test: IL-17 mRNA expression in colonic tissues, real-time PCR, DNBS model; conditions: compared to the group with induced colitis
Protocol: In the mouse model of colitis using DNBS, the level of mRNA expression of IL-17 was evaluated by using a real-time PCR. (In FIG. 12, ** indicates P<0.01 and *** indicates P<0.001.)

[13] = test system: IL-6; test: IL-6 mRNA expression in colonic tissues, DNBS model; conditions: compared to the group with induced colitis
[14] = 5th day, 30 mg/kg/day oral twice a day

COCCCOc1ccnc(C[S+]([O-])c2nc3ccccc3[nH]2)c1C (centres unmarked) [control drug, rabeprazole, reference compound]
decrease in body weight ([1]; 9th day): about 23%
scored degree of damage to colonic tissues [2]: 8.12±1.8 point
scored degree of damage to colonic tissues ([3]; score per Table 3): 7.0±1.4 point
body weight [4, 14]: 89%
survival rate [4]: 75%

Cc1nc2cc(C(=O)N(C)C)cc(O[C@H]3CCOc4cc(F)cc(F)c43)c2[nH]1 [tegoprazan, (S)-4-(5,7-difluorochroman-4-yloxy)-N,N,2-trimethyl-1H-benzo[d]imidazole-6-carbox amide]
expression of KCNJ1 mRNA [5]: significant decrease in expression of KCNJ1 mRNA
mRNA expression of TNF-α [6]: tended to decrease
production/expression of IL-1β [7]: inhibits the production/expression
mRNA expression of IL-6 [8]: statistically significant decrease
length of the large intestine ([1]; 9th day): a rather increase in the length of the large intestine or no difference from the normal control group
decrease in body weight ([1]; 9th day): about 14%
disease activity index (DAI) score ([1]; to 9th day): took a turn for the better compared to the group with induced colitis
mRNA expression of Muc2 [9]: statistically significant increase
mRNA expression of TNF-α [10]: statistically significant decrease
crypt damage (PAS staining) ([2]; colonic tissues): partially intact crypt was observed
goblet cells (PAS staining) ([2]; colonic tissues): goblet cells were also present compared to the group with induced colitis
scored degree of damage to colonic tissues [2]: 5.38±1.8 point
damage to the tight junction (FITC-dextran permeability) [11]: significant decrease in the damage to the tight junction
crypt damage (PAS staining) ([3]; colonic tissues): partially intact crypt was observed
goblet cells (PAS staining) ([3]; colonic tissues): presence of mucin-producing goblet cells was confirmed
mRNA expression of IL-17 [12]: significant decrease
length of the large intestine [4, 14]: no difference in the length of the large intestine from the normal control group
body weight [4, 14]: about 105%
survival rate [4]: all the subjects in the group dosed with tegoprazan survived until the last day of experiment
disease activity index (DAI) score ([4]; to 5th day, 30 mg/kg/day oral twice a day): DAI drastically decreased from the 4th day
mRNA expression of IL-6 [13]: tended to decrease
